Holding throughout (type): cell-based, human
Test [1] has as its system breast cancer cell MDA-MB-231. Briefly: In vitro cellular proliferation assay (MTT/MTS).
Test [2] has as its system leukemia Jurkat E6-1 cells. Description: In vitro cellular proliferation assay (MTT/MTS). On the procedure:
(§1) In Vitro Cellular Proliferation Assay: BT474 breast cancer cells (ATCC® HTB-20, overexpression of HER2), A549 lung cancer cells, leukemia cell CCRF-CEM (ATCC# CCL-119), and leukemia Jurkat cell were cultured at 37° C. in a 5% CO2 atmosphere and grown in Gibco® RPMI 1640 medium supplemented with 10% fetal bovine serum (FBS) and 1% antibiotic-[…] mix antibiotic supplement before use.
(§2) Exponentially growing cells were harvested and plated in 96-well plates at a concentration of 1×10^4 cells/well. After incubation at 37° C. for 24 h, the cells were treated with analogues of JS-K at different concentrations for an additional 24, 48 or 72 h. Then 20 μL of MTT (5 mg/mL) or MTS was added to each well and the plates were incubated at 37° C. for 4 h. The supernatant was discarded for MTT assay, and 100 μL of DMSO was added to each well. For the MTS assay, this step is not necessary. The absorbance was recorded at 490 nm after 15 min. Inhibition of cell growth was obtained by the following formula: Inhibition of cell growth (%)=(ODnegative control−ODtreatment)×100%/(ODnegative control−ODbackground). Data are reported as the mean of three independent experiments, each run in quintuplicate.

In a further test the test system is A549 lung cancer cells. Briefly: In vitro cellular proliferation assay (MTT/MTS). Here is the method: as §1, §2
Test [3] has as its system BT474 breast cancer cells. Briefly: In vitro cellular proliferation assay (MTT/MTS). Here is the method: as §1, §2
The test system of another test is leukemia cell CCRF-CEM. Briefly: In vitro cellular proliferation assay (MTT/MTS). On the procedure: as §1, §2
Test [4] deals with BT474, MDA-MB-231, A549, CCRF-CEM and Jurkat cancer cells. Briefly: In vitro cellular proliferation assay, comparison across the tested cancer cell panel. Here is the method:
as §1, §2

The mark [5] stands for this setting: Homo sapiens, MDA-MB-231, read-out: Half maximal inhibitory concentration (IC50).
[6] abbreviates: Homo sapiens, Jurkat E6.1, read-out: Half maximal inhibitory concentration (IC50).
The mark [7] stands for this setting: Homo sapiens, A549, read-out: Half maximal inhibitory concentration (IC50).
Where [8] appears, read: Homo sapiens, BT-474, read-out: Half maximal inhibitory concentration (IC50).
The mark [9] stands for this setting: Homo sapiens, CCRF-CEM, read-out: Half maximal inhibitory concentration (IC50).

Where two headings read alike, the source gives them in different places.

With `O=[N+]([O-])c1ccc(O/N=[N+](\[O-])N2CCN(CCN3CCN(/[N+]([O-])=N/Oc4ccc([N+](=O)[O-])cc4[N+](=O)[O-])CC3)CC2)c([N+](=O)[O-])c1` [Compound 1, (1Z,1′Z)-1,1′-(ethane-1,2-diylbis(piperazine-4,1-diyl))bis(2-(2,4-dinitrophenoxy)diazene 1-oxide)], the IC50 was 17.6 ± 0.08 µM in test [1] (setting [5]); 3.71 ± 0.04 µM in test [2] (setting [6]); 17.1 ± 1.02 µM with A549 lung cancer cells (setting [7]); 10.7 ± 0.97 µM in test [3] (setting [8]); 2.64 ± 0.37 µM in the test with leukemia cell CCRF-CEM (setting [9]).
With `O=[N+]([O-])c1ccc(O/N=[N+](\[O-])N2CCN(CCCN3CCN(/[N+]([O-])=N/Oc4ccc([N+](=O)[O-])cc4[N+](=O)[O-])CC3)CC2)c([N+](=O)[O-])c1` [Compound 2, (1Z,1′Z)-1,1′-(propane-1,3-diylbis(piperazine-4,1-diyl))bis(2-(2,4-dinitrophenoxy)diazene 1-oxide)], the IC50 in test [1] (setting [5]) was above 20 µM; in test [2] (setting [6]), 4.06 ± 0.18 µM; in the test on A549 lung cancer cells (setting [7]) it was 18.8 ± 0.21 µM; in test [3] (setting [8]) it was 10.8 ± 0.08 µM; with leukemia cell CCRF-CEM (setting [9]), 3.73 ± 0.15 µM.
`O=[N+]([O-])c1ccc(O/N=[N+](\[O-])N2CCC(CN3CCN(/N=[N+](\[O-])Oc4ccc([N+](=O)[O-])cc4[N+](=O)[O-])CC3)CC2)c([N+](=O)[O-])c1` [Compound 3, (E)-1-(2,4-dinitrophenoxy)-2-(4-((1-((Z)-2-(2,4-dinitrophenoxy)-1-oxidodiazen-1-yl)piperidin-4-yl)methyl)piperazin-1-yl)diazene 1-oxide]: in test [4] (among the compounds of the series), the “specific activity to human leukemia cells” value is recorded as “highest specific activity”. Also, in test [4] (compared with JS-K), the “selectivity to leukemia cells versus breast cancer and lung cancer cells” value is given as “higher selectivity than JS-K”. The “IC50 fold higher (less cell killing potency) than for JS-K” value in test [4] (other four cancer cells (other than CEM), relative to JS-K) is on record as 1.9-5.4 fold. In addition, the IC50 was 17.9 ± 1.01 µM in test [1] (setting [5]); 1.94 ± 0.08 µM in test [2] (setting [6]); 11.3 ± 1.61 µM in the test with A549 lung cancer cells (setting [7]); 7.06 ± 1.03 µM in test [3] (setting [8]); 0.46 ± 0.02 µM in the test with leukemia cell CCRF-CEM (setting [9]); 0.46 µM in the test with leukemia cell CCRF-CEM (Homo sapiens, CCRF-CEM, read-out: IC50 against leukemia CEM cells).
For the compound `O=[N+]([O-])c1ccc(O/N=[N+](\[O-])N2CCN(CC3CCC(CN4CCN(/[N+]([O-])=N/Oc5ccc([N+](=O)[O-])cc5[N+](=O)[O-])CC4)CC3)CC2)c([N+](=O)[O-])c1` (stereo not drawn) [Compound 4, (1Z,1′Z)-1,1′-((cyclohexane-1,4-diylbis(methylene))bis(piperazine-4,1-diyl))bis(2-(2,4-dinitrophenoxy)diazene 1-oxide)], the IC50 turned out to be 16.4 ± 0.53 µM in test [1] (setting [5]); 3.01 ± 0.22 µM in test [2] (setting [6]); 18.5 ± 0.15 µM with A549 lung cancer cells (setting [7]); 6.01 ± 0.21 µM in test [3] (setting [8]); 2.54 ± 0.14 µM in the test with leukemia cell CCRF-CEM (setting [9]).
As to `CCOC(=O)N1CCN(/[N+]([O-])=N/Oc2ccc([N+](=O)[O-])cc2[N+](=O)[O-])CC1` [JS-K, O^2-(2,4-dinitrophenyl) 1-[(4-ethoxycarbonyl)piperazin-1-yl]diazen-1-ium-1,2-diolate, reference compound], the “inhibitory effect on cellular proliferation” value in test [4] (all tested cancer cells: BT474, MDA-MB-231, A549, CCRF-CEM, Jurkat) is on record as “high inhibitory effect”. Moreover, the IC50 in test [1] (MDA-MB-231 cells, read-out: Half maximal inhibitory concentration (IC50)) was 7.93 ± 0.47 µM; in test [2] (Jurkat E6-1 cells, read-out: Half maximal inhibitory concentration (IC50)), 0.52 ± 0.02 µM; in the test on A549 lung cancer cells (A549 cells, read-out: Half maximal inhibitory concentration (IC50)) it was 2.11 ± 0.15 µM; in test [3] (BT474 cells, read-out: Half maximal inhibitory concentration (IC50)) it was 3.66 ± 0.41 µM; with leukemia cell CCRF-CEM (leukemia CEM cells, read-out: IC50 against leukemia CEM cells), 0.29 µM.

Values taken from patent US10556875B2, “Bis-diazeniumdiolate compounds as anti-cancer agents” (ARIZONA BOARD OF REGENTS ON BEHALF OF ARIZONA STATE …, priority 2017, dated 2020).
